Here are results for nine compounds from PMC9706024, “Chromenone Derivatives as Monoamine Oxidase Inhibitors from Marine-Derived MAR4 Clade Streptomyces sp. CNQ-031” (Journal of Microbiology and Biotechnology, 2021).

Assay [1] concerns the target T1, Recombinant human MAO-A (Homo sapiens, UniProt P21397).
T1 construct: purchased Sigma-Aldrich (USA)
T1 sequence (P21397 1-527): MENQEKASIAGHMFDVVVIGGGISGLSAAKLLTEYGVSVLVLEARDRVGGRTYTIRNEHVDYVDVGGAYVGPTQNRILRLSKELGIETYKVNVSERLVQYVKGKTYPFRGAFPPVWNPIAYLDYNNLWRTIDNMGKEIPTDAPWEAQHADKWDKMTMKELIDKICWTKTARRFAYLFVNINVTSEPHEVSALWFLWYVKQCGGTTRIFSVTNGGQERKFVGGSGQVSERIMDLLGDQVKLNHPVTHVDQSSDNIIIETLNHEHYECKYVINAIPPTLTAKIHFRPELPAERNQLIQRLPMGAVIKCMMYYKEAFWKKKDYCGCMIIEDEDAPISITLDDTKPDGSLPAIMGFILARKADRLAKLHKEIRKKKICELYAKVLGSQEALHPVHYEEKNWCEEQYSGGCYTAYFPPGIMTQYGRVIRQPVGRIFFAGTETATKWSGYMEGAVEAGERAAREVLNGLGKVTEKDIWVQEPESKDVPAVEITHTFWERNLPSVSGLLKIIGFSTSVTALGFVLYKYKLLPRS
Put plainly: Reversibility of MAO-A inhibition by dialysis. The class given is biochemical. To be noted: for Reversibility of MAO-A inhibition: dialysis; for Relative activity of MAO-A, dialyzed (AD) / Relative activity of MAO-A, undialyzed (AU): inhibitor at twice the IC50, preincubated 30 min; for Relative activity of MAO-A, dialyzed (AD): after dialysis. As for the experimental part:
(§1) After the compounds or reference inhibitors were preincubated with MAOs for 30 min, residual activities for undialyzed and dialyzed samples were measured. The relative values for undialyzed (AU) and dialyzed (AD) activities were then calculated, and the reversibilities were determined by comparing the AU and AD values of the inhibitors with those of the references.
(§2) Results are the averages of experiments performed in duplicate.

For the next assay, the target named is T2, BACE-1 (Homo sapiens, UniProt P56817).
T2 construct: purchased Sigma-Aldrich (USA)
As to the kind of experiment: BACE-1 Activity Detection Kit, fluorescence assay. The class given is biochemical. The settings on record: means ± SD of duplicate experiments, read-out: Residual activity at 10 µM (%) BACE-1.

The target of assay [2] is T3, AChE from Electrophorus electricus (Electrophorus electricus, UniProt O42275).
T3 construct: AChE from Electrophorus electricus; purchased Sigma-Aldrich (USA)
As to the kind of experiment: biochemical. The settings on record: means ± SD of duplicate experiments; for remaining activity at 10 µM: read-out: Residual activity at 10 µM (%) AChE.

In assay [3] the target is T1, Recombinant human MAO-A. As to the kind of experiment: MAO-A inhibition kinetics (Lineweaver-Burk and secondary plots). The class given is biochemical. The settings on record: for Mode of MAO-A inhibition: Lineweaver-Burk plots; for Ki: secondary plots of Lineweaver-Burk slopes, kynuramine 0.0075-0.12 mM. As for the experimental part:
(§3) Kinetic parameters, inhibition types, and […] (Ki) values of potent MAO-A and MAO-B inhibitors (i.e., compound 1 for MAO-A; compound 2 for MAO-A and MAO-B) were determined, as previously described. […]; Inhibitory patterns and Ki values were determined using Lineweaver-Burk plots and secondary plots of their slopes.
(§4) Modes of MAO-A inhibition by compound 1 and modes of MAO-A and MAO-B inhibition by compound 2 were investigated using Lineweaver-Burk plots. […].
(§5) Fig. 3 Lineweaver-Burk plots of monoamine oxidase (MAO)-A inhibition by compound 1 (A) and of MAOA and MAO-B inhibition by compound 2 (C and E for respective MOA isoforms) as well as their respective secondary plots, as slopes of Lineweaver-Burk plots vs. inhibitor concentrations (B, D, and F). […]. […] The initial velocity was expressed as an increase in absorbance per min.

Assay [4] concerns the target T1, Recombinant human MAO-A. As to the kind of experiment: biochemical. The settings on record: for remaining activity at 10 µM / IC50: means ± SD of duplicate experiments; for remaining activity at 10 µM: read-out: Residual activity at 10 µM (%) MAO-A; for SI (selectivity index): ratio of high IC50/low IC50 for MAO inhibition (compound 1: MAO-A versus MAO-B; compound 2: MAO-B versus MAO-A). Format: biochemical. As for the experimental part:
(§6) All other chemicals were of reagent grade.
(§7) MAO-A and MAO-B inhibitory activities were determined using a continuous spectrophotometric method as described previously. […] AChE activities were assayed as described by Ellman et al., with slight modification. The inhibitory activities of AChE and BChE were measured after the enzyme was preincubated with inhibitors for 15 min and before adding DTNB and the substrate (ATCI and BTCI, respectively). […] Reaction rates were expressed as changes in absorbance per minute.

The target of assay [5] is T4, human MAO-B (Homo sapiens, UniProt P27338).
T4 construct: purchased Sigma-Aldrich (USA)
T4 sequence (P27338 1-520): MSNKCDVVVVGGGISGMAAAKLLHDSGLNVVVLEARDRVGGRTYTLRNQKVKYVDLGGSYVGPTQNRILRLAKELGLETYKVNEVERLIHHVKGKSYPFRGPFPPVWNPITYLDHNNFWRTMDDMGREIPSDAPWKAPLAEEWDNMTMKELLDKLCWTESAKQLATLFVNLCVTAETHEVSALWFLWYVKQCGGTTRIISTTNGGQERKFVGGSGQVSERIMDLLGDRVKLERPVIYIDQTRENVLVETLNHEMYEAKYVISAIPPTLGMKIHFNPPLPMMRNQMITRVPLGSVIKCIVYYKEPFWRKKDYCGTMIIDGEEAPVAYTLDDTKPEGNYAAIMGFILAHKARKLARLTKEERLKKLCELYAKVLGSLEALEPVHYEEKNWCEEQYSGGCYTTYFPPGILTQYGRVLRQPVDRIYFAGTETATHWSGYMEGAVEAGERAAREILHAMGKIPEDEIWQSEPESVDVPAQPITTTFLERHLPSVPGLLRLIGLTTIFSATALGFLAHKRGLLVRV
As to the kind of experiment: biochemical. Format: biochemical. The settings on record: for remaining activity at 10 µM / IC50: means ± SD of duplicate experiments; for remaining activity at 10 µM: read-out: Residual activity at 10 µM (%) MAO-B. As for the experimental part: as §6, §7

For the next assay, the target named is T5, BChE from equine serum (Equus caballus, UniProt P81908).
T5 construct: BChE from equine serum; purchased Sigma-Aldrich (USA); host or cells: equine serum
Put plainly: biochemical. The settings on record: means ± SD of duplicate experiments, read-out: Residual activity at 10 µM (%) BChE. As for the experimental part: as §6, §7

For assay [6], the target named is T4, human MAO-B. Put plainly: MAO-B inhibition kinetics (Lineweaver-Burk and secondary plots). The class given is biochemical. As for the experimental part:
as §3, §4, §5

Assay [7] concerns the target T4, human MAO-B. Put plainly: Reversibility of MAO-B inhibition by dialysis. Format: biochemical. As for the experimental part:
as §1, §2

In a further assay the test system is MAO-B. The settings on record: cited from earlier work.
A further assay deals with MAO-A. To be noted: cited from earlier work.

“Also recorded” adds a separate entry of the source.

T2 sequence (P56817 46-501, species assumed): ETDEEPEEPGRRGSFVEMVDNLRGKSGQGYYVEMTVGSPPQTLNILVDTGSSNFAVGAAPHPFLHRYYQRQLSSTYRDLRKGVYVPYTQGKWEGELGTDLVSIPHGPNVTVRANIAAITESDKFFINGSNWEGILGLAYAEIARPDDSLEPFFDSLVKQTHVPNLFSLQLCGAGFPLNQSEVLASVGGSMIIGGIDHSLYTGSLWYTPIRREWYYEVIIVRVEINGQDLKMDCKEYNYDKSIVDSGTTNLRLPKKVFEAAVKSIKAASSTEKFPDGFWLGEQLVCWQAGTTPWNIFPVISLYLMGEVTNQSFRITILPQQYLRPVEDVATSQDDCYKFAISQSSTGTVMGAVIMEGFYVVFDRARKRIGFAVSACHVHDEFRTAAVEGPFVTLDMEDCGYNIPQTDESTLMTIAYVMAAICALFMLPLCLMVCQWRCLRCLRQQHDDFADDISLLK
T5 sequence (P81908 whole entry): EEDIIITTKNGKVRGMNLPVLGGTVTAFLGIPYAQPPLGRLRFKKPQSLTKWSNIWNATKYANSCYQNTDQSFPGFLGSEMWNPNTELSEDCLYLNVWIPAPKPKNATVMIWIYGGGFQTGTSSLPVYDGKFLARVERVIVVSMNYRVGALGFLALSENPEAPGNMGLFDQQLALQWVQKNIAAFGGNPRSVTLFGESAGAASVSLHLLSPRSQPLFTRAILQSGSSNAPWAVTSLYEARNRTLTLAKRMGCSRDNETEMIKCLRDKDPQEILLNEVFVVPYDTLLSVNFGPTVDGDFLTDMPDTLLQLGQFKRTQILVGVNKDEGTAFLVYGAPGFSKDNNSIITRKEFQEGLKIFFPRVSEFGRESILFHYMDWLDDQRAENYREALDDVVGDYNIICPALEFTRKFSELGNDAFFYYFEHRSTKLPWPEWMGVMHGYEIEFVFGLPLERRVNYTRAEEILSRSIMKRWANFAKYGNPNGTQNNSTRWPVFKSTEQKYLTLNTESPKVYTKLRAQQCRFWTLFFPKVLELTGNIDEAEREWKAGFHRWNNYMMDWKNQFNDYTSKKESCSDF
T3 sequence (O42275 24-633): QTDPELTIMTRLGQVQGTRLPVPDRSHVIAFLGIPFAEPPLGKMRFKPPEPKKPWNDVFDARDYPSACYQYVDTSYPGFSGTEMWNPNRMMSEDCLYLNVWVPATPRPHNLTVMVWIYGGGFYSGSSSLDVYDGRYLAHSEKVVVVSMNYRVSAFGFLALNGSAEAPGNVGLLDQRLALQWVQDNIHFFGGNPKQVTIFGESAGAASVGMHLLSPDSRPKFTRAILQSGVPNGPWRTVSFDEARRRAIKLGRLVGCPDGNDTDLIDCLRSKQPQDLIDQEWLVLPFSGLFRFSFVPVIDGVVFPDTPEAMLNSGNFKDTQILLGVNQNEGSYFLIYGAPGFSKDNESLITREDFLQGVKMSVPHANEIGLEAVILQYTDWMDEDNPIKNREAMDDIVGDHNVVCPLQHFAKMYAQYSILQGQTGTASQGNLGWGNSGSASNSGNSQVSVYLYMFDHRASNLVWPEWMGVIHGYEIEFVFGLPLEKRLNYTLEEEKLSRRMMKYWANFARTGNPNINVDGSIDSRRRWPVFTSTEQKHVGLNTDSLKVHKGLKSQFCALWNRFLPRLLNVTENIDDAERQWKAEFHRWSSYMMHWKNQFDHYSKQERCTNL

For orientation: IC50 means the concentration at which inhibition is half-maximal. For orientation: Ki means the equilibrium dissociation constant of an inhibitor or competing ligand from its target. For the compound `CC(C)c1cc(=O)c2c(O)cc(O)cc2o1` [Compound 1, 5,7-dihydroxy-2-isopropyl-4H-chromen-4-one], on Recombinant human MAO-A [1], the “Reversibility of MAO-A inhibition” value was “reversible inhibitor”; the “Relative activity of MAO-A, dialyzed (AD)” value is 90.9%; the “Relative activity of MAO-A, undialyzed (AU)” value amounted to 35.5%. Also, the remaining activity at 10 µM on BACE-1 stood at 85.8 ± 0.28%. Further, in assay [2], the remaining activity at 10 µM was 70.5 ± 6.31% and the IC50 turned out to be 31.7 ± 2.39 µM. At Recombinant human MAO-A [3], the “Mode of MAO-A inhibition” value was “competitive inhibitor” and the Ki is 0.94 ± 0.28 µM. For the same compound, at Recombinant human MAO-A [4], the remaining activity at 10 µM was 25.4 ± 2.24%, the IC50 turned out to be 2.7 ± 0.034 µM and the “SI (selectivity index)” value is listed as 10.0. Further, at human MAO-B [5], the remaining activity at 10 µM is 71.5 ± 5.45% and the IC50 was 27 ± 2.78 µM. Moreover, the remaining activity at 10 µM at BChE from equine serum is 80.7 ± 3.46%.

As for `CCC(C)c1cc(=O)c2c(O)cc(O)cc2o1` (stereo not shown) [Compound 2, 5,7-dihydroxy-2-(1-methylpropyl)-4H-chromen-4-one], the “Mode of MAO-B inhibition” value on human MAO-B [6] (Lineweaver-Burk plots) was “competitive inhibitor”. Also, at human MAO-B [6] (secondary plots of Lineweaver-Burk slopes, benzylamine 0.03-0.6 mM), the Ki worked out at 1.89 ± 0.014 µM. Further, on Recombinant human MAO-A [1], the “Reversibility of MAO-A inhibition” value was “reversible inhibitor”; the “Relative activity of MAO-A, dialyzed (AD)” value is reported as 79.4%; the “Relative activity of MAO-A, undialyzed (AU)” value amounted to 35.6%. At human MAO-B [7] (dialysis), the “Reversibility of MAO-B inhibition” value was “reversible inhibitor”. Moreover, the “Relative activity of MAO-B, dialyzed (AD)” value at human MAO-B [7] (inhibitor at twice the IC50, preincubated 30 min, after dialysis) was 76.7%. Besides, the “Relative activity of MAO-B, undialyzed (AU)” value at human MAO-B [7] (inhibitor at twice the IC50, preincubated 30 min, undialyzed) is listed as 34.8%. Besides, the remaining activity at 10 µM at BACE-1 was determined as 98.3 ± 0.27%. For the same compound, in assay [2], the remaining activity at 10 µM is 88.3 ± 2.54%. On Recombinant human MAO-A [3], the “Mode of MAO-A inhibition” value is on record as “competitive inhibitor” and the Ki was found to be 3.57 ± 0.6 µM. Also, at Recombinant human MAO-A [4], the remaining activity at 10 µM was 37.8 ± 0.82%, the concentration for half-maximal inhibition (IC50) stood at 6.92 ± 0.067 µM and the “SI (selectivity index)” value is given as 2.02. In addition, on human MAO-B [5], the remaining activity at 10 µM came out at 34.4 ± 7.95% and the IC50 is 3.42 ± 1.47 µM. Moreover, at BChE from equine serum, the remaining activity at 10 µM is 96.4 ± 4.27%.

Take `COc1cccc2nc3ccccc3nc12` [Compound 3, 1-methoxyphenazine]: the remaining activity at 10 µM at BACE-1 was found to be 79.9 ± 0.73%; in assay [2], 83 ± 8.24%; on Recombinant human MAO-A [4], 93.6 ± 4.11%; on human MAO-B [5] it was 96.9 ± 2.65%; on BChE from equine serum it was 97 ± 2.72%. The “Inhibitory activity against MAO-A (in words)” value on Recombinant human MAO-A [4] is listed as “did not inhibit; also recorded: little inhibitory activity”. On human MAO-B [5], the “Inhibitory activity against MAO-B (in words)” value was “did not inhibit; also recorded: little inhibitory activity”.

For `CC1CC(=O)c2c(O)cccc2O1` (stereo not shown) [HMC, 5-hydroxy-2-methyl-chroman-4-one], the IC50 in the assay with MAO-B is 3.23 µM; in the assay on MAO-A, 14 µM.

Regarding `O=c1oc2cc(O)ccc2c2ccc(O)cc12` [UroA], in the assay with MAO-A, the IC50 was 5.88 µM.

`O=c1oc2cc(O)ccc2c2ccccc12` [UroB]: the IC50 with MAO-A is 0.88 µM.

As to `O=c1oc2cc(O)ccc2c2cc(O)c(O)cc12` [Ur°C], the IC50 with MAO-A was 29.6 µM.

With `COc1cc(O)c2c(=O)oc3cc(O)cc(C)c3c2c1` [alternariol monomethyl ether], in the assay with MAO-A, the half-maximal inhibitory concentration (IC50) was 1.71 µM.

`CN1C(=N)N(C)/C(=C/c2c[nH]c3ccccc23)C1=O` [aplysinopsin]: the IC50 in the assay with MAO-A is 0.0056 µM.
